The values that follow come from ChEMBL document CHEMBL1201862, “PubChem BioAssay data set” (2004).

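96-well plates; 48 h exposure; 5 concentrations. Endpoints by linear interpolation between flanking doses. Not reached: highest tested concentration assigned. Here, GI50 denotes the concentration required for 50% inhibition of growth.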 Calls of active or inactive are those of the source. No stated cut-off is given here; in the data, active = GI50 up to about 1.1 µM and inactive = higher.

Some test systems named below: NCI-H460; NCI-H226; HCT-15; A549; EKVX; OVCAR-4; ACHN; SK-MEL-2; IGROV-1; U-251; LOX IMVI; HOP-92; 786-0; CCRF-CEM; OVCAR-3; COLO 205; PC-3; UACC-257.
Assay in all cases: NCI tumour cell line growth inhibition, 48 h

For the compound `Cc1cccc(C2SCc3nc4ccccc4n32)c1` (stereo not given), the GI50 in the assay with NCI-H460 is 27.7 µM (inactive); with NCI-H226, 24.1 µM (inactive); in the assay on HCT-15 it was 18.6 µM; with A549 it was 37 µM (inactive); with EKVX it was 18.9 µM (inactive); in the assay on OVCAR-4, 28.2 µM (inactive). Further, the GI50 with ACHN is 24.3 µM (inactive); in the assay with SK-MEL-2, 18.5 µM (inactive); in the assay on IGROV-1, 24.5 µM (inactive); in the assay with U-251 it was 19.7 µM (inactive); in the assay on LOX IMVI it was 28.6 µM (inactive); in the assay with HOP-92, 14.7 µM (inactive). In addition, the GI50 with 786-0 is 25.1 µM (inactive); in the assay on CCRF-CEM, 31.8 µM (inactive); in the assay on OVCAR-3, 17.8 µM (inactive); with COLO 205 it was > 10 µM (inactive).

As for `[N-]=[N+]=C(C(=O)CN1CCCC1=O)S(=O)(=O)c1ccccc1`, the GI50 in the assay on NCI-H460 is > 100 µM (inactive); in the assay with NCI-H226, > 100 µM (inactive); in the assay with HCT-15 it was over 100 µM; with A549 it was > 100 µM (inactive); in the assay on EKVX it was > 100 µM (inactive); with PC-3, > 100 µM (inactive). Besides, the GI50 with ACHN, in the assay with SK-MEL-2, in the assay with IGROV-1, in the assay with UACC-257, with U-251 and in the assay on LOX IMVI was > 100 µM (inactive) each time. In addition, the GI50 in the assay on 786-0, in the assay with CCRF-CEM, in the assay with OVCAR-3 and in the assay with COLO 205 was > 100 µM (inactive) throughout.

Take `COC(=O)CCC1CCc2c(OC)ccc(O)c2C1=O` (stereo not given): the GI50 in the assay on NCI-H460 was > 100 µM (inactive); in the assay with NCI-H226, 28.7 µM (inactive); in the assay with HCT-15 it was over 100 µM; in the assay with A549 it was > 100 µM (inactive); in the assay with EKVX it was > 100 µM (inactive); in the assay on OVCAR-4, > 100 µM (inactive). Besides, the GI50 in the assay with ACHN, in the assay with SK-MEL-2, with IGROV-1, in the assay with UACC-257, in the assay with U-251 and in the assay with LOX IMVI was > 100 µM (inactive) throughout. In addition, the GI50 with 786-0, in the assay on CCRF-CEM, in the assay with OVCAR-3 and with COLO 205 was > 100 µM (inactive) throughout.

Regarding `Cc1nc(Cl)nc(Cl)c1C`, the GI50 in the assay on NCI-H460 was > 100 µM (inactive); in the assay on NCI-H226 it was > 100 µM (inactive); with HCT-15, over 100 µM; with A549 it was > 100 µM (inactive); with EKVX it was > 100 µM (inactive); in the assay on PC-3, > 100 µM (inactive). Also, the GI50 in the assay with OVCAR-4, in the assay with ACHN, in the assay with SK-MEL-2, in the assay on IGROV-1, in the assay with UACC-257 and in the assay on U-251 was > 100 µM (inactive) in each case. Besides, the GI50 with LOX IMVI, in the assay on 786-0, with CCRF-CEM and with OVCAR-3 was > 100 µM (inactive) in each case.

Consider `C[C@@]1(Br)C[C@@](C)(Cl)[C@@H](Br)CC1/C=C/Cl` (stereo not given in full), for which the GI50 with NCI-H460 is 28.6 µM (inactive); in the assay with NCI-H226, 10.8 µM (inactive); in the assay with HCT-15 it was 27 µM; with A549, 17.7 µM (inactive); in the assay with PC-3 it was 15.9 µM (inactive); in the assay with OVCAR-4, 24.8 µM (inactive). In addition, the GI50 in the assay on ACHN was 18.1 µM (inactive); in the assay with SK-MEL-2, 16.7 µM (inactive); with IGROV-1, 8.15 µM (inactive); with UACC-257, 17.9 µM (inactive); in the assay on U-251 it was 19.3 µM (inactive); in the assay on LOX IMVI, 17.6 µM (inactive). The GI50 is 16.6 µM (inactive) with 786-0, 11.1 µM (inactive) in the assay with CCRF-CEM, 15.1 µM (inactive) in the assay with OVCAR-3 and 15.6 µM (inactive) in the assay with COLO 205.
